Among the data in PubChem BioAssay (NCI) are TGI values, retold here.

Test in all cases: growth of human tumour cells (NCI), 48 h
For experiment [1], the system named is 786-0 renal.
The subject of experiment [2] is A549 NSCLC.
In experiment [3] the test system is ACHN renal.
Experiment [4] deals with CCRF-CEM leukemia.
For experiment [5], the system named is HT29 colon.
Experiment [6] relates to IGROV1 ovarian.
For experiment [7], the system named is K-562 leukemia.
Experiment [8] relates to M14 melanoma.
Experiment [9] relates to MOLT-4 leukemia.
Experiment [10] deals with NCI-H460 lung.
The subject of experiment [11] is NCI/ADR-RES ovarian.
In experiment [12] the test system is OVCAR-5 ovarian.
Experiment [13] has as its system OVCAR-8 ovarian.
The test system of experiment [14] is RPMI-8226 leukemia.
Experiment [15] concerns SK-MEL-28 melanoma.
The test system of experiment [16] is SN12C renal.
Experiment [17] relates to SW-620 colon.
Experiment [18] deals with T-47D breast.
Experiment [19] relates to TK-10 renal.
Experiment [20] concerns UACC-257 melanoma.

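Cultured in 96-well plates, cells were exposed to test compound for 48 hours across five concentrations. TGI denotes the concentration required for complete inhibition of growth.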

Regarding `CC(=O)OC[C@@H]1[C@H]2CC[C@]3(C)[C@@H](OC(C)=O)CC[C@H]3[C@@H]2CC[C@H]1C1(C)SCCS1`, the TGI in experiment [1], in experiment [2], in experiment [3], in [4], in experiment [5] and in experiment [6] was greater than 25 µM in each case. Moreover, the TGI in experiment [7], in experiment [8], in experiment [9], in experiment [10], in experiment [11] and in experiment [12] was greater than 25 µM throughout. The TGI in [13], in experiment [14], in experiment [15], in experiment [16], in experiment [17] and in experiment [18] was greater than 25 µM in each case. For the same molecule, the TGI in experiment [19] and in [20] was greater than 25 µM throughout.
With `CSCCC(N)P(C)(=O)O` (stereo not given), the TGI in experiment [1], in experiment [2], in experiment [3], in experiment [4], in [5] and in experiment [6] was greater than 100 µM throughout. The TGI in experiment [7], in experiment [8], in experiment [9], in experiment [10], in experiment [11] and in experiment [12] was greater than 100 µM throughout. For the same molecule, the TGI in experiment [13], in [14], in experiment [15], in [16], in experiment [17] and in experiment [18] was greater than 100 µM throughout. Also, the TGI in [19] and in experiment [20] was greater than 100 µM throughout.
On to `CCCCOC(=O)NC(Nc1ccc(S(=O)(=O)Nc2ccc(OC)nn2)cc1)(C(F)(F)F)C(F)(F)F`, for which the TGI in experiment [1], in experiment [2], in experiment [3], in experiment [4], in experiment [5] and in experiment [6] was greater than 100 µM in each case. Further, the TGI in experiment [7], in experiment [8], in experiment [9], in experiment [10], in experiment [11] and in experiment [12] was greater than 100 µM throughout. Besides, the TGI in experiment [13], in [14], in experiment [15], in [16], in [17] and in experiment [18] was greater than 100 µM in each case. Further, the TGI in [19] and in experiment [20] was greater than 100 µM each time.
On to `COC(=O)[C@H]1C[C@H]1NC(=O)C(CC(=O)OCc1ccccc1)NC(=O)OCc1ccccc1` (stereo not given in full), for which the TGI in [1], in experiment [2], in [3], in [4], in [5] and in [6] was greater than 100 µM in each case. Further, the TGI in experiment [7] was greater than 100 µM; in [8], 52.1 µM; in experiment [9] it was greater than 100 µM; in experiment [10], 72.4 µM; in [11], 91.5 µM; in experiment [12], greater than 100 µM. The TGI in experiment [13] is greater than 100 µM; in [14], 50.2 µM; in experiment [15], greater than 100 µM; in experiment [16], greater than 100 µM; in experiment [17] it was greater than 100 µM; in experiment [18], 98.4 µM. Besides, the TGI in [19] and in [20] was greater than 100 µM each time.
For the molecule `O=C1C(C(c2ccccc2)N2CCOCC2)=C(O)C(c2ccccc2)N1c1ccccc1` (stereo not given), the TGI in experiment [1], in experiment [2], in experiment [3], in [4], in experiment [5] and in experiment [6] was greater than 10 µM throughout. Further, the TGI in experiment [7], in experiment [8], in experiment [9], in experiment [10], in [11] and in experiment [12] was greater than 10 µM each time. The TGI in experiment [13], in experiment [14], in experiment [15], in experiment [16], in experiment [17] and in experiment [18] was greater than 10 µM each time. Further, the TGI in [19] and in [20] was greater than 10 µM in each case.
`N/C(=N\N=C\c1c[nH]c2cc(C(F)(F)F)ccc2c1=O)NO`: the TGI in experiment [1], in experiment [2], in experiment [3], in [4], in experiment [5] and in experiment [6] was greater than 10 µM each time. For the same molecule, the TGI in experiment [7], in experiment [8], in experiment [9], in experiment [10], in experiment [11] and in experiment [12] was greater than 10 µM in each case. The TGI in experiment [13], in experiment [14], in experiment [15], in experiment [16], in experiment [17] and in experiment [18] was greater than 10 µM throughout. Moreover, the TGI in experiment [19] and in [20] was greater than 10 µM in each case.
As for `O=C(O)C1=C(C(=O)O)N(c2ccncc2)C(c2ccco2)=CC1c1ccccc1[N+](=O)[O-]` (stereo not given), the TGI in [1] is 4.06 µM; in [2] it was 35.9 µM; in experiment [3], 3.13 µM; in experiment [4], greater than 23.8 µM; in experiment [5] it was 3.2 µM; in experiment [6], 4.84 µM. Also, the TGI was greater than 100 µM in experiment [7]; 22.5 µM in experiment [8]; 14.5 µM in experiment [9]; 28.9 µM in [10]; greater than 69.9 µM in experiment [11]; 33.8 µM in experiment [12]. Besides, the TGI was greater than 59 µM in experiment [13]; greater than 24.6 µM in experiment [14]; greater than 54.8 µM in experiment [15]; 29.1 µM in experiment [16]; greater than 27.1 µM in [17]; 20.1 µM in experiment [18]. Besides, the TGI in experiment [19] worked out at 17.6 µM; in experiment [20], 5.28 µM.
For the molecule `CCOP(=O)(OCC)C(N)Cc1ccc(OC)c(OC)c1` (stereo not given), the TGI in [1], in experiment [2], in [3], in experiment [4], in experiment [5] and in experiment [6] was greater than 100 µM each time. Further, the TGI in experiment [7], in experiment [8], in experiment [9], in experiment [10], in [11] and in experiment [12] was greater than 100 µM in each case. Besides, the TGI in experiment [13], in [14], in experiment [15], in [16], in experiment [17] and in experiment [18] was greater than 100 µM each time. Moreover, the TGI in experiment [19] and in experiment [20] was greater than 100 µM throughout.
As for `CSC1=NC(C(N)=O)C(N)N1C` (stereo not given), the TGI in [1], in [2], in experiment [3], in experiment [4], in experiment [5] and in [6] was greater than 100 µM in each case. The TGI in experiment [7], in experiment [8], in experiment [9], in experiment [10], in experiment [11] and in experiment [12] was greater than 100 µM in each case. The TGI in [13], in [14], in [15], in experiment [16], in experiment [17] and in experiment [18] was greater than 100 µM throughout. In addition, the TGI in experiment [19] and in experiment [20] was greater than 100 µM throughout.
Regarding `CN1C(=O)N/C(=C\c2ccc(S(=O)(=O)N/N=C\C(O)C(O)C(O)CO)cc2)C1=O` (stereo not given), the TGI in [1], in experiment [2], in [3], in [4], in experiment [5] and in experiment [6] was greater than 100 µM each time. In addition, the TGI in [7], in [8], in experiment [9], in experiment [10], in experiment [11] and in experiment [12] was greater than 100 µM in each case. Also, the TGI in experiment [13], in experiment [14], in [15], in experiment [16], in [17] and in experiment [18] was greater than 100 µM in each case. The TGI in [19] and in experiment [20] was greater than 100 µM in each case.
As to `CCC(=O)N1NC(=O)C(CC)(CC)C1=O`, the TGI in experiment [1], in experiment [2], in [3], in [4], in [5] and in experiment [6] was greater than 100 µM throughout. The TGI in [7], in experiment [8], in experiment [9], in experiment [10], in experiment [11] and in experiment [12] was greater than 100 µM each time. In addition, the TGI in [13], in experiment [14], in experiment [15], in [16], in [17] and in [18] was greater than 100 µM in each case. Also, the TGI in [19] and in experiment [20] was greater than 100 µM throughout.
`CCOC(=O)[C@H](O)[C@@H](O)C(=O)NCc1ccc(C(=O)c2ccccc2)cc1`: the TGI in [1], in experiment [2], in experiment [3], in experiment [4], in experiment [5] and in [6] was greater than 100 µM in each case. The TGI in experiment [7], in [8], in experiment [9], in experiment [10], in experiment [11] and in [12] was greater than 100 µM throughout. Besides, the TGI in experiment [13], in experiment [14], in experiment [15], in experiment [16], in [17] and in experiment [18] was greater than 100 µM each time. Further, the TGI in [19] and in experiment [20] was greater than 100 µM in each case.
As for `CCOC(=O)C(C)(C(=O)OCC)/C(Cl)=C\Cl`, the TGI in experiment [1], in experiment [2], in experiment [3], in [4], in experiment [5] and in experiment [6] was greater than 100 µM throughout. Also, the TGI in experiment [7], in experiment [8], in [9], in experiment [10], in [11] and in experiment [12] was greater than 100 µM throughout. The TGI in experiment [13], in experiment [14], in experiment [15], in experiment [16], in [17] and in [18] was greater than 100 µM each time. In addition, the TGI in [19] and in [20] was greater than 100 µM each time.
As for `CC(=O)Nc1ccc(CNc2cc(=O)n(C)c(=O)[nH]2)cc1`, the TGI in experiment [1], in experiment [2], in experiment [3], in experiment [4], in experiment [5] and in experiment [6] was greater than 100 µM each time. Also, the TGI in experiment [7], in experiment [8], in [9], in [10], in experiment [11] and in [12] was greater than 100 µM each time. Also, the TGI in experiment [13], in experiment [14], in [15], in experiment [16], in [17] and in [18] was greater than 100 µM each time. The TGI in experiment [19] and in experiment [20] was greater than 100 µM each time.
